Laboratory results reported in patent publication US20250064750A1, “LIPID AND COMPOSITION USED FOR DELIVERY” (JIANGSU HENGRUI PHARMACEUTICALS CO., LTD., priority 2021, published 2025).
Like-named read-outs stand apart in the source and are kept apart here.

Columns and labels:
[1] = pKa of cations in liposomal nanoparticles, TNS fluorescence analysis; format: physicochemical; conditions: pH at half-maximal TNS fluorescence
Protocol: (§1) Compound 1, compound 2, and comparative compound 1 were each dissolved in an ethanol solution, and the resulting solution was mixed with solutions of DSPC, cholesterol, and DMG-PEG in ethanol in a mole ratio of 50:10:38.5:1.5 to prepare an ethanol lipid solution. mRNA encoding a human growth factor was dissolved in a citrate buffer to prepare an aqueous mRNA solution. Liposomes were prepared by mixing the ethanol lipid solution and the aqueous mRNA solution by microfluidics with a weight ratio of total lipids to mRNA of about 20:1. The ethanol was removed by dialysis against PBS solution to give an mRNA-encapsulating liposomal nanoparticle composition.
The pKa of cations in the liposomal nanoparticles was determined using a fluorescence analysis based on 6-(p-toluidino)-2-naphthalenesulfonic acid sodium salt (TNS). 150 mM NaCl, 10 mM sodium phosphate, 10 mM sodium citrate, 10 mM sodium borate, and buffers of various pH levels ranging from 3 to 11.5 were prepared. A 300 μM TNS solution was prepared and added to the buffers. The lipid nanoparticles were added to the buffers of different pH levels and thoroughly mixed with them. Then the fluorescence intensity at an excitation wavelength of 325 nm and an emission wavelength of 435 nm was measured at room temperature using a fluorescence microplate reader. A fitting analysis of the fluorescence data was performed, with the pKa being the pH value at which half-maximal fluorescence intensity was produced.

in vivo = conditions: female, BALB/c, mouse, 0.5 mg/kg
Protocol: (§2) To evaluate the targeting in liposomal nanoparticles' in vivo delivery, liposomal nanoparticles with mRNA for expression of hepatocyte growth factor encapsulated therein were injected into the tail veins of 6-8 week old female BALB/c mice at a dose of 0.5 mg/kg. Plasma, liver, and spleen samples were collected at 1 hour, 2 hours, 4 hours, 6 hours, 24 hours, and 48 hours after injection of the lipid nanoparticles, and the concentrations of cationic lipid molecules in the plasma samples at the corresponding time points were determined by LC-MS mass spectrometry to evaluate the metabolism and in vivo clearance rate of the lipid nanoparticles. For the lipid nanoparticles to which each compound corresponds, at least 3 biological replicates were used, and the mean cationic lipid concentrations in the tissues were calculated.
(§3) Based on pharmacokinetic parameters, the half-lives of the cationic lipids in the tissues were calculated.

[2] = system: hepatocyte growth factor protein; experiment: In vivo mRNA delivery by intramuscular injection, hepatocyte growth factor protein expression by ELISA; parameters: species or system BALB/c mice; conditions: HGF mRNA lipid nanoparticles, 0.05 mg/kg; for Mean protein expression level: thigh muscle injection, muscle tissue after 24 hours
Protocol: After 24 hours, the muscle tissue at the injection site was collected, ground, and lysed. The expression level of hepatocyte growth factor protein (pg/mg), i.e., the hepatocyte growth factor protein amount to which the unit muscle tissue total protein amount corresponds, was then measured using an ELISA kit.
With the liposomal nanoparticles to which comparative compound 1 corresponds as a control, the intramuscular injection in vivo mRNA delivery efficiency of the liposomal nanoparticles to which compounds 1 and 2 correspond was measured.

[3] = Size and polydispersity index of liposomal nanoparticles by dynamic light scattering; format: physicochemical; conditions: mRNA-encapsulating liposomal nanoparticles; lipid:DSPC:cholesterol:DMG-PEG 50:10:38.5:1.5
Protocol: as §1
The size and polydispersity index (PDI) of the liposomal nanoparticles were determined using a Malvern Zetasizer Nano ZS in a 173° backscatter detection mode through dynamic light scattering.

[4] = female, BALB/c, mouse, in vivo, 0.5 mg/kg
Protocol: as §2, §3

luciferase protein = experiment: Tail vein injection in vivo mRNA delivery efficiency, whole-body luciferase fluorescence intensity (IVIS); parameters: species or system BALB/c mice; conditions: 0.5 mg/kg, 6 hours; for Fluorescence intensity level (p/s): whole body
Protocol: After 6 hours, the luciferase substrate was injected intraperitoneally into each mouse. Fluorescence images of the mice were captured using an IVIS small animal optical in vivo imaging system (PerkinElme), and the whole-body fluorescence intensity of the mice was recorded. The level of fluorescence intensity reflects the expression level of luciferase protein, i.e., the in vivo mRNA delivery efficiency of the liposomal nanoparticles. […] In FIG. 2, the fluorescence intensity refers to the whole-body fluorescence intensity of the mice recorded using the IVIS small animal optical in vivo imaging system. The level of fluorescence intensity reflects the expression level of luciferase protein, i.e., the in vivo mRNA delivery efficiency of the lipid nanoparticles.
With the liposomal nanoparticles to which comparative compound 1 corresponds as a control, the mouse tail vein injection in vivo mRNA delivery efficiency of the liposomal nanoparticles to which compound 1, compound 3, and compound 4 correspond was measured.

[5] = Liposome encapsulation efficiency, Quant-iT RiboGreen RNA assay; format: physicochemical; conditions: mRNA-encapsulating liposomal nanoparticles
Protocol: as §1
The liposome encapsulation efficiency was determined using a Quant-iT RiboGreen RNA assay kit.

interleukin 6 (IL-6) = experiment: In vivo immunogenicity: serum IL-6 concentration by ELISA after tail vein injection; parameters: species or system BALB/c mice; conditions: 0.5 mg/kg, 6 hours
Description: When exogenous substances enter the bodies of mammals, they induce an innate immune response, thereby promoting the production of cytokines. These exogenous substances can cause inflammatory reactions after entry into the body, which easily give rise to adverse reactions such as fever and edema in the body. The immunogenicity of lipid nanoparticles in the body was therefore evaluated by evaluating the concentration of a cytokine such as interleukin 6 (IL-6) in the blood of mice injected with lipid nanoparticles. Lower cytokine concentrations indicate that the lipid nanoparticles have lower immunogenicity, which means that they are biologically safer.
After 6 hours, blood was collected and serum was isolated. The IL-6 concentration in the serum was measured using a mouse IL-6 ELISA kit.

[6] = Tissue targeting: cationic lipid concentrations in liver and spleen after tail vein injection, LC-MS; format: in vivo, BALB/c mice; conditions: 0.5 mg/kg; for AUC(0-t): female, BALB/c, mouse, intravenous, HGF mRNA lipid nanoparticles
Protocol: Based on pharmacokinetic parameters, the total cationic lipid concentrations in the tissues 48 hours after administration were calculated to evaluate the distribution of lipid nanoparticles in the liver and spleen.

[7] = luciferase mRNA lipid nanoparticles
[8] = luciferase mRNA lipid nanoparticles, tail vein

| pKa [1] | concentration at 1 h (in vivo) | half-life (in vivo; Half-life (hours) Liver) | half-life (in vivo; Half-life (hours) Spleen) | PDI [3] | Size (nm) [3] | time at which completely cleared from plasma [4] | Encapsulation efficiency (%) [5] | serum IL-6 concentration compared with comparative compound 1 (interleukin 6 (IL-6)) | AUC(0-t) ([6]; cationic lipid in liver, read-out: AUC48 h (h*μg/mL) Liver) | AUC(0-t) ([6]; cationic lipid in spleen, read-out: AUC48 h (h*μg/mL) Spleen) | concentration in the liver compared with comparative compound 1 ([6]; liver samples at the various time points (FIG. 3)) | concentration in the spleen compared with comparative compound 1 ([6]; spleen (FIG. 4)) | SMILES | in vivo mRNA delivery via intramuscular injection compared with comparative compound 1 ([2]; 24 hours) | in vivo mRNA delivery via intramuscular injection compared with compound 2 ([2]; 24 hours) | Mean protein expression level [2] | tail vein injection in vivo mRNA delivery efficiency compared with comparative compound 1 (luciferase protein; [7]) | tail vein injection in vivo mRNA delivery efficiency compared with comparative compound 3 (so in the source) (luciferase protein; [7]) | Fluorescence intensity level (p/s) (luciferase protein; [8]) | protein expression level relative to lipid nanoparticles of comparative compound 1 (luciferase protein; tail vein) |
| --- | --- | --- | --- | --- | --- | --- | --- | --- | --- | --- | --- | --- | --- | --- | --- | --- | --- | --- | --- | --- |
| 6.65 | 1160 ng/mL | 34.2 h | 31.9 h | 0.08 | 87.8 nm | 4 h | 94.6% | significantly lower | 540 µg·h/mL | 493 µg·h/mL | significantly higher | significantly lower | CCCCCCCCCCCOC(=O)CCCCCN(CCO)CCCCCOCC(=O)OC(CCCCCCCC)CCCCCCCC [Compound 1] | significantly outperformed | significantly outperformed | 217.3 pg/mg | significantly better | significantly outperformed | 1.05E+09 p/s | 2.1 times |
| 6.38 |  |  |  | 0.07 | 116.5 nm |  | 97.3% |  |  |  |  |  | CCCCCCCCCCCOC(=O)CCCCCN(CCO)CCOCCCCC(=O)OC(CCCCCCCC)CCCCCCCC [Compound 2] |  |  | 92.5 pg/mg |  |  |  |  |
| 6.49 |  |  |  | 0.09 | 79.6 nm |  | 96.7% |  |  |  |  |  | CCCCCCCCCCCOC(=O)CCCCCN(CCO)CCCCCO[C@@H](C)C(=O)OC(CCCCCCCC)CCCCCCCC [Compound 3] |  |  |  |  |  | 4.28E+06 p/s |  |
| 6.3 |  |  |  | 0.07 | 74.8 nm |  | 97.3% | significantly lower |  |  |  |  | CCCCCCCCCCCOC(=O)CCCCCN(CCO)CCCCCOC(C)(C)C(=O)OC(CCCCCCCC)CCCCCCCC [Compound 4] |  |  |  | significantly outperformed |  | 6.78E+08 p/s |  |
